Calls of active or inactive are those of the source. The calls are words filed in the database; no cut-off is given here.
Tests used:
Escherichia coli [1] = assay: Antibacterial activity against Escherichia coli assessed as zone of inhibition after 24 to 48 hrs by well diffusion method; type: functional
Streptococcus pyogenes [2] = assay: Antibacterial activity against Streptococcus pyogenes assessed as zone of inhibition by measuring activity index after 24 to 48 hrs by well diffusion method relative to penicillin G; type: functional, organism-based
Escherichia coli [3] = assay: Antibacterial activity against Escherichia coli assessed as zone of inhibition by measuring activity index after 24 to 48 hrs by well diffusion method relative to ampicillin; type: functional, organism-based
NCI-H157 [4] = assay: Cytotoxicity against human NCI-H157 cells at 10 uM after 48 hrs by sulforhodamine B assay; type: functional
Klebsiella pneumoniae [5] = assay: Antibacterial activity against Klebsiella pneumoniae assessed as zone of inhibition after 24 to 48 hrs by well diffusion method; type: functional
Serratia marcescens [6] = assay: Antibacterial activity against Serratia marcescens assessed as zone of inhibition by measuring activity index after 24 to 48 hrs by well diffusion method relative to tetracycline; type: functional, organism-based
[7] = test system: Staphylococcus epidermidis; assay: Antibacterial activity against Staphylococcus epidermidis assessed as zone of inhibition by measuring activity index after 24 to 48 hrs by well diffusion method relative to tetracycline; type: functional, organism-based
Pseudomonas aeruginosa [8] = assay: Antibacterial activity against Pseudomonas aeruginosa assessed as zone of inhibition after 24 to 48 hrs by well diffusion method; type: functional
Escherichia coli [9] = assay: Antibacterial activity against Escherichia coli assessed as zone of inhibition by measuring activity index after 24 to 48 hrs by well diffusion method relative to tetracycline; type: functional
NCI-H157 [10] = assay: Cytotoxicity against human NCI-H157 cells at 0.1 uM after 48 hrs by sulforhodamine B assay; type: functional
Streptococcus pyogenes [11] = assay: Antibacterial activity against Streptococcus pyogenes assessed as zone of inhibition by measuring activity index after 24 to 48 hrs by well diffusion method relative to tetracycline; type: functional, organism-based
Leishmania major [12] = assay: Antileishmanial activity against Leishmania major promastigotes at 10 uM after 72 hrs by MTT assay relative to control; type: functional
Klebsiella pneumoniae [13] = assay: Antibacterial activity against Klebsiella pneumoniae assessed as zone of inhibition by measuring activity index after 24 to 48 hrs by well diffusion method relative to amoxicillin; type: functional, organism-based
[14] = test system: Staphylococcus epidermidis; assay: Antibacterial activity against Staphylococcus epidermidis assessed as zone of inhibition after 24 to 48 hrs by well diffusion method; type: functional
Staphylococcus aureus [15] = assay: Antibacterial activity against Staphylococcus aureus assessed as zone of inhibition after 24 to 48 hrs by well diffusion method; type: functional
NCI-H157 [16] = assay: Cytotoxicity against human NCI-H157 cells at 1 uM after 48 hrs by sulforhodamine B assay; type: functional
NCI-H157 [17] = assay: Cytotoxicity against human NCI-H157 cells after 48 hrs by sulforhodamine B assay; type: functional, cell-based
Streptococcus pyogenes [18] = assay: Antibacterial activity against Streptococcus pyogenes assessed as zone of inhibition after 24 to 48 hrs by well diffusion method; type: functional
Escherichia coli [19] = assay: Antibacterial activity against Escherichia coli assessed as zone of inhibition by measuring activity index after 24 to 48 hrs by well diffusion method relative to amoxicillin; type: functional, organism-based
Leishmania major [20] = assay: Antileishmanial activity against Leishmania major promastigotes at 100 uM after 72 hrs by MTT assay relative to control; type: functional
Serratia marcescens [21] = assay: Antibacterial activity against Serratia marcescens assessed as zone of inhibition after 24 to 48 hrs by well diffusion method; type: functional
Klebsiella pneumoniae [22] = assay: Antibacterial activity against Klebsiella pneumoniae assessed as zone of inhibition by measuring activity index after 24 to 48 hrs by well diffusion method relative to tetracycline; type: functional, organism-based
[23] = test system: Staphylococcus epidermidis; assay: Antibacterial activity against Staphylococcus epidermidis assessed as zone of inhibition by measuring activity index after 24 to 48 hrs by well diffusion method relative to amoxicillin; type: functional, organism-based
Escherichia coli [24] = assay: Antibacterial activity against Escherichia coli assessed as zone of inhibition by measuring activity index after 24 to 48 hrs by well diffusion method relative to penicillin G; type: functional, organism-based
Leishmania major [25] = assay: Antileishmanial activity against Leishmania major promastigotes at 1 uM after 72 hrs by MTT assay relative to control; type: functional
Streptococcus pyogenes [26] = assay: Antibacterial activity against Streptococcus pyogenes assessed as zone of inhibition by measuring activity index after 24 to 48 hrs by well diffusion method relative to amoxicillin; type: functional, organism-based
Streptococcus pyogenes [27] = assay: Antibacterial activity against Streptococcus pyogenes assessed as zone of inhibition by measuring activity index after 24 to 48 hrs by well diffusion method relative to ampicillin; type: functional, organism-based
NCI-H157 [28] = assay: Cytotoxicity against human NCI-H157 cells at 100 uM after 48 hrs by sulforhodamine B assay; type: functional
Pseudomonas aeruginosa [29] = assay: Antibacterial activity against Pseudomonas aeruginosa assessed as zone of inhibition by measuring activity index after 24 to 48 hrs by well diffusion method relative to ampicillin; type: functional, organism-based
Leishmania major [30] = assay: Antileishmanial activity against Leishmania major promastigotes at 0.1 uM after 72 hrs by MTT assay relative to control; type: functional
Klebsiella pneumoniae [31] = assay: Antibacterial activity against Klebsiella pneumoniae assessed as zone of inhibition by measuring activity index after 24 to 48 hrs by well diffusion method relative to ampicillin; type: functional, organism-based
Pseudomonas aeruginosa [32] = assay: Antibacterial activity against Pseudomonas aeruginosa assessed as zone of inhibition by measuring activity index after 24 to 48 hrs by well diffusion method relative to penicillin G; type: functional, organism-based
Serratia marcescens [33] = assay: Antibacterial activity against Serratia marcescens assessed as zone of inhibition by measuring activity index after 24 to 48 hrs by well diffusion method relative to penicillin G; type: functional
Pseudomonas aeruginosa [34] = assay: Antibacterial activity against Pseudomonas aeruginosa assessed as zone of inhibition by measuring activity index after 24 to 48 hrs by well diffusion method relative to amoxicillin; type: functional, organism-based
Serratia marcescens [35] = assay: Antibacterial activity against Serratia marcescens assessed as zone of inhibition by measuring activity index after 24 to 48 hrs by well diffusion method relative to amoxicillin; type: functional
DNA [36] = assay: Binding affinity to single-stranded DNA (unknown origin) after 10 mins by UV-visible spectrometric method; type: nucleic-acid assay
Serratia marcescens [37] = assay: Antibacterial activity against Serratia marcescens assessed as zone of inhibition by measuring activity index after 24 to 48 hrs by well diffusion method relative to ampicillin; type: functional
DNA [38] = assay: Binding affinity to single-stranded DNA (unknown origin) assessed as DNA intercalation by measuring increase in relative viscosity of DNA-compound complex by viscometry; type: nucleic-acid assay
DNA [39] = assay: Binding affinity to single-stranded DNA (unknown origin) assessed as red shift up to 72 uM after 10 mins by UV-visible spectrometric method; type: nucleic-acid assay
Pseudomonas aeruginosa [40] = assay: Antibacterial activity against Pseudomonas aeruginosa assessed as zone of inhibition by measuring activity index after 24 to 48 hrs by well diffusion method relative to tetracycline; type: functional, organism-based
[41] = test system: Staphylococcus epidermidis; assay: Antibacterial activity against Staphylococcus epidermidis assessed as zone of inhibition by measuring activity index after 24 to 48 hrs by well diffusion method relative to ampicillin; type: functional, organism-based
Staphylococcus aureus [42] = assay: Antibacterial activity against Staphylococcus aureus assessed as zone of inhibition by measuring activity index after 24 to 48 hrs by well diffusion method relative to tetracycline; type: functional, organism-based
Staphylococcus aureus [43] = assay: Antibacterial activity against Staphylococcus aureus assessed as zone of inhibition by measuring activity index after 24 to 48 hrs by well diffusion method relative to ampicillin; type: functional, organism-based
[44] = test system: Staphylococcus epidermidis; assay: Antibacterial activity against Staphylococcus epidermidis assessed as zone of inhibition by measuring activity index after 24 to 48 hrs by well diffusion method relative to penicillin G; type: functional, organism-based
Staphylococcus aureus [45] = assay: Antibacterial activity against Staphylococcus aureus assessed as zone of inhibition by measuring activity index after 24 to 48 hrs by well diffusion method relative to penicillin G; type: functional, organism-based
Staphylococcus aureus [46] = assay: Antibacterial activity against Staphylococcus aureus assessed as zone of inhibition by measuring activity index after 24 to 48 hrs by well diffusion method relative to amoxicillin; type: functional, organism-based
Klebsiella pneumoniae [47] = assay: Antibacterial activity against Klebsiella pneumoniae assessed as zone of inhibition by measuring activity index after 24 to 48 hrs by well diffusion method relative to penicillin G; type: functional, organism-based

Substance	inhibition zone (IZ) (Escherichia coli [1])	Activity (NCI-H157 [4]) [%]	inhibition zone (IZ) (Klebsiella pneumoniae [5])	Activity index [7]	inhibition zone (IZ) (Pseudomonas aeruginosa [8])	Activity (NCI-H157 [10]) [%]	Activity (Leishmania major [12]) [%]	Activity index (Klebsiella pneumoniae [13])	inhibition zone (IZ) [14]	inhibition zone (IZ) (Staphylococcus aureus [15])	Activity (NCI-H157 [16]) [%]	Activity (NCI-H157 [17])	inhibition zone (IZ) (Streptococcus pyogenes [18])	Activity (Leishmania major [20]) [%]	inhibition zone (IZ) (Serratia marcescens [21])	Activity index (Klebsiella pneumoniae [22])	Activity index [23]	Activity (Leishmania major [25]) [%]	Activity (NCI-H157 [28]) [%]	Activity (Leishmania major [30]) [%]	further results
Dimethylstannanediyl bis 2-(4-methoxy-2-nitrophenylcarbamoyl)benzoate	1.77 mm	53.4	25.2 mm	1.33	inactive	48.9	54.7	4.2	13.3 mm	13.7 mm	51.2	Dose-dependent effect	inactive	62.3	inactive	1.8	6.65	51.6	55.6	48.4	Activity_index (Streptococcus pyogenes [2]): inactive; Activity_index (Escherichia coli [3]): inactive; Activity_index (Serratia marcescens [6]): inactive; Activity index (Escherichia coli [9]): 0.88; Activity_index (Streptococcus pyogenes [11]): inactive; Activity_index (Escherichia coli [19]): inactive; Activity_index (Escherichia coli [24]): inactive; Activity_index (Streptococcus pyogenes [26]): inactive; Activity_index (Streptococcus pyogenes [27]): inactive; Activity_index (Pseudomonas aeruginosa [29]): inactive; Activity index (Klebsiella pneumoniae [31]): 4.2
Trimethylstannyl 2-(4-methoxy-2-nitrophenylcarbamoyl)benzoate	16.7 mm	62.3	20.2 mm	1.03	15.7 mm	54.4	66.5	3.44	10.3 mm	4.66 mm	58.2	Dose-dependent effect	7.33 mm	67.8	13.3 mm	1.44	5.17	62.9	66.4	58.8	Activity index (Pseudomonas aeruginosa [32]): 2.61; Activity index (Serratia marcescens [33]): 1.67; Activity index (Pseudomonas aeruginosa [34]): 2.61; Activity index (Escherichia coli [9]): 8.33; Activity index (Serratia marcescens [35]): 2.22; K (DNA [36]): 4.2 ×10³ /M; Activity index (Serratia marcescens [37]): 1.67; Activity (DNA [38]): Active; Activity (DNA [39]): < 3 nm; Activity index (Pseudomonas aeruginosa [40]): 2.61; Activity index (Klebsiella pneumoniae [31]): 3.44
Triethylstannyl 2-(4-methoxy-2-nitrophenylcarbamoyl)benzoate	inactive	57.4	27.7 mm	1.1	inactive	39.8	53.2	4.61	11 mm	19.3 mm	43.7	Dose-dependent effect	15.7 mm	56.4	15.3 mm	1.98	5.5	49.4	62.4	45.3	Activity_index (Escherichia coli [3]): inactive; Activity index (Serratia marcescens [33]): 1.92; Activity index (Serratia marcescens [35]): 2.55; K (DNA [36]): 9.3 ×10³ /M; Activity_index (Escherichia coli [19]): inactive; Activity index (Serratia marcescens [37]): 1.92; Activity (DNA [38]): Active; Activity_index (Escherichia coli [24]): inactive; Activity (DNA [39]): < 3 nm; Activity_index (Pseudomonas aeruginosa [29]): inactive; Activity index (Klebsiella pneumoniae [31]): 4.61
Diphenylstannanediyl bis 2-(4-methoxy-2-nitrophenylcarbamoyl)benzoate	inactive	67.1	inactive	–	10 mm	55.5	65.5	–	inactive	inactive	59.6	Dose-dependent effect	7.33 mm	71.2	inactive	–	–	60.4	73.9	56.6	Activity index (Pseudomonas aeruginosa [32]): 1.67; Activity_index [41]: inactive; Activity_index (Escherichia coli [3]): inactive; Activity_index (Serratia marcescens [6]): inactive; Activity index (Pseudomonas aeruginosa [34]): 1.67; Activity_index (Staphylococcus aureus [42]): inactive; Activity_index (Staphylococcus aureus [43]): inactive; Activity_index [44]: inactive; Activity_index (Staphylococcus aureus [45]): inactive; Activity_index (Escherichia coli [19]): inactive; Activity_index (Escherichia coli [24]): inactive; Activity index (Pseudomonas aeruginosa [40]): 1.67; Activity_index (Staphylococcus aureus [46]): inactive; Activity_index (Klebsiella pneumoniae [47]): inactive
Tricyclohexylstannyl 2-(4-methoxy-2-nitrophenylcarbamoyl)benzoate	inactive	54	18.5 mm	1.23	18.7 mm	43.6	63.5	3.09	12.3 mm	inactive	50.6	Dose-dependent effect	16.7 mm	67.8	inactive	1.32	6.17	58.8	59.3	55.2	Activity index (Pseudomonas aeruginosa [32]): 3.11; Activity_index (Serratia marcescens [6]): inactive; Activity index (Pseudomonas aeruginosa [34]): 3.11; Activity_index (Staphylococcus aureus [42]): inactive; Activity_index (Staphylococcus aureus [43]): inactive; Activity_index (Staphylococcus aureus [45]): inactive; Activity index (Pseudomonas aeruginosa [40]): 3.11; Activity_index (Staphylococcus aureus [46]): inactive; Activity index (Klebsiella pneumoniae [31]): 3.09
